Results on six molecules are retold here after article PMC6033213, “Structurally simple synthetic 1, 4-disubstituted piperidines with high selectivity for resistant Plasmodium falciparum” (BMC Pharmacology & Toxicology, 2018).

Converted amounts (≈) assume the structure as drawn. Like-named read-outs stand apart in the source and are kept apart here.

One data set deals with P. falciparum 3D7. Nature of the data set: Secondary screen: parasite growth inhibition by parasite lactate dehydrogenase (pLDH) assay, 3D7. The class given is cell-based, Plasmodium falciparum. On the set-up: key to Antiplasmodial activity class on 3D7: active, IC50 < 5 μg/mL; moderately active: 5 μg/mL ≤ IC50 ≤ 10 μg/mL; weakly active: IC50 ≥ 10 μg/mL. The following applies: for IC50 / IC90: Plasmodium falciparum; for IC90: read-out: IC90. The text has this:
(§1) Two Plasmodium falciparum parasite strains were obtained from MR4 (Manassas, Virginia, USA) and stored in liquid nitrogen. The 3D7 (MRA-102) strain is chloroquine- sensitive while Dd2 is a multidrug resistant clone of the W2 strain with resistance to chloroquine, quinine, mefloquine, sulfadoxine and pyrimethamine. Parasite stocks were thawed, grown and maintained in continuous culture by the candle jar technique with some modifications. The culture consisted of 4% hematocrit suspension of human O+ erythrocytes in RPMI-1640 medium (10.43 g/L supplemented with 0.01 mg/mL gentamycin, 25 mM Hepes buffer, 25 mM NaHCO3) and 5 g Albumax II. All culture reagents were obtained from Sigma-Aldrich Inc. (Germany) except for Albumax II (Gibco; Invitrogen, USA). Cultures were incubated at 37 °C in 5% CO2.
(§2) After incubation the plate was frozen at − 20 °C for the parasite lactate dehydrogenase (pLDH) assay.
(§3) The reagent preparation and assay were done as described. The plates were subjected to 3 freeze-thaw cycles to haemolyze the red blood cells. One hundred microlitre (100 μL) of Malstat reagent was added to each required well of a fresh microtitre plate followed by 20 μL of culture. Then 25 μL of nitroblue tetrazolium/phenazine ethosulfate (NBT/PES) solution was added initiating the reaction. The plates were then incubated for an hour in the dark and optical density (OD) measured at 650 nm (Emax-Molecular Devices Corporation, California, USA).
(§4) For the parasite lactate dehydrogenase assay, the background OD of blank wells containing non parasitized red blood cells was subtracted from values of all test wells. OD values from control wells void of test compound represented the maximum pLDH activity. The OD values obtained were used to determine the IC50, and IC90 values using the software IC Method IC Estimator V1.2 [18], an online calculator of IC values. Each assay was done twice in duplicates and the 4 IC50 or CC50 values obtained were pooled together and expressed as mean IC ± S.D.

Data set [1] deals with P. falciparum Dd2. Nature of the data set: Secondary screen: parasite growth inhibition by parasite lactate dehydrogenase (pLDH) assay, Dd2. It is filed as cell-based, Plasmodium falciparum. More on the design: key to Antiplasmodial activity class on Dd2: active, IC50 < 5 μg/mL; moderately active: 5 μg/mL ≤ IC50 ≤ 10 μg/mL; weakly active: IC50 ≥ 10 μg/mL. Conditions: for IC50 / IC90: Plasmodium falciparum; for IC90: read-out: IC90.
Description: as §1, §2, §3, §4

Data set [2] relates to P. falciparum Dd2. The experiment in a line: Primary screen: in vitro parasite growth inhibition at a single concentration, fluorescence microscopy with acridine orange. It is filed as cell-based, Plasmodium falciparum. Conditions: 40 μg/mL, 48 h, Dd2 chloroquine-resistant strain; for inhibition at 40 µg/mL: Plasmodium falciparum.
Description: as §1
A primary screen for antiplasmodial activity at a single concentration was performed against Dd2 as described with some modifications, to identify active compounds. Stock solutions of compound (1 mg/mL) was initially dissolved in dimethylsulfoxide (DMSO), then gentamycin-free incomplete medium (without Albumax II) added giving 2% final DMSO; the solutions were sterilized and stored. The positive control solutions (artemether and quinine at 5 μg/mL) were prepared similarly. The compounds were tested at a final concentration of 40 μg/mL in duplicate in a 96 well microtitre plate (100 μL per well), followed by 100 μL of 1% parasitized blood. Positive and negative controls (no drug) were included. The plate was incubated under the same culture conditions as above for 48 h and antiplasmodial activity determined by fluorescence microscopy (Leitz Wetzlar, Germany) with acridine orange stain at × 40 magnification under oil immersion. The number of infected erythrocytes (Ei) was counted in 20 monolayer fields (approximately 1500 cells per field) and the percentage parasitaemia was calculated using the formula:1 %parasitaemia=∑Ei/30,000×100
The percentage inhibition per concentration was then obtained using the formula below:2 percentage%inhibition=%parasitaemia of control well‐%parasitaemia of test well/%parasitaemia of control well×100

Data set [3] is described as follows: Cytotoxicity test, MTT/formazan assay. The class given is cell-based, monkey. The following applies: monkey, LLC-MK2 monkey kidney epithelial cells; LLC-MK2 cells, 72 h, MTT/formazan. Here is the method:
(§5) This was done on monkey kidney epithelial cells, LLC-MK2, (ATCC, USA) as described except for use of same culture medium and conditions for P falciparum above. The cells, 10,000 in 100 μL medium per well, were cultured for 24 h to become confluent and attached to the bottom of the well and the medium replaced with 100 μL of fresh medium. […] A negative control without test substance was included. The plates were incubated for 72 h at 37 °C in 5% CO2 and cell viability were determined using microscopy to observe dead cells which appeared dark and deformed. This was followed by the MTT/formazan assay as described above with slight modification. The CC50 values (50% cytotoxic concentration) for each compound was obtained using Microsoft excel 2007. The selectivity index (SI) was calculated using the formula:3 SI=CC50onLLC‐MK2cells/IC50onP.falciparum
as §4

Data set [4] deals with LLC-MK2 monkey kidney epithelial cells. Nature of the data set: Cytotoxicity test, MTT/formazan assay. The following applies: for SI on 3D7: CC50 on LLC-MK2 cells/IC50 on P. falciparum 3D7; for SI on Dd2: CC50 on LLC-MK2 cells/IC50 on P. falciparum Dd2; for Mean SI: mean of the Selectivity Indices of the 3D7 and Dd2 parasite strains. The class given is cell-based. How it is done: as §5, §4

Where [5] appears, read: 3D7 chloroquine-sensitive strain, pLDH assay, mean ± S.D., read-out: IC50.
Where [6] appears, read: Dd2 chloroquine-resistant strain, pLDH assay, mean ± S.D., read-out: IC50.
Where [7] appears, read: Dd2 chloroquine-resistant strain, pLDH assay, mean ± S.D.
The mark [8] stands for this setting: 3D7 chloroquine-sensitive strain, pLDH assay, mean ± S.D.
Where [9] appears, read: 3D7 strain, class by IC50, read-out: Antiplasmodial activity class on 3D7.
[10] abbreviates: Dd2 strain, class by IC50, read-out: Antiplasmodial activity class on Dd2.

Regarding `CO[C@H]1O[C@@H]2O[C@@]3(C)CC[C@H]4[C@H](C)CC[C@@H]([C@H]1C)[C@@]24OO3` [Art, artemether, reference compound], the IC50 in the data set with P. falciparum 3D7 (setting [5]) was determined as 0.045 µg/mL (≈ 0.151 µM); in the data set on P. falciparum Dd2 [1] (setting [6]), 0.039 µg/mL (≈ 0.131 µM). In the data set on P. falciparum Dd2 [1] (setting [7]), the IC90 turned out to be 0.046 µg/mL (≈ 0.154 µM).

In turn, `O=C(c1ccc(F)cc1)C1CCN(Cc2ccc(F)cc2)CC1` [Compound 1, [1-(4-fluorobenzyl)piperidin-4-yl] [4-fluorophenyl] methanone] yielded an inhibition at 40 µg/mL in the data set on P. falciparum Dd2 [2] of 83.2%. Also, the IC50 in the data set on P. falciparum 3D7 (setting [5]) is 8.45 ± 2.11 µg/mL (≈ 26.8 µM); in the data set with P. falciparum 3D7 (setting [9]) it was 5 to 10 µg/mL (≈ 15.9 to 31.7 µM); in the data set on P. falciparum Dd2 [1] (setting [6]), 5.69 ± 2.38 µg/mL (≈ 18 µM); in the data set with P. falciparum Dd2 [1] (setting [10]), 5 to 10 µg/mL (≈ 15.9 to 31.7 µM). For the same molecule, the figures for the IC90 in the data set with P. falciparum 3D7 (setting [8]) and with P. falciparum Dd2 [1] (setting [7]) were 17.9 ± 0.18 µg/mL (≈ 56.6 µM) and 27.6 ± 0.78 µg/mL (≈ 87.5 µM), respectively. In data set [3], the CC50 at 72 h worked out at 188 µg/mL (≈ 595 µM). Besides, the “SI on 3D7” value in data set [4] came to 22.17. Besides, in data set [4], the “SI on Dd2” value was 32.91. In addition, the “Mean SI” value in data set [4] is 27.54 ± 7.59.

`O=C(c1ccc(F)cc1)C1CCN(Cc2ccc(Cl)c(Cl)c2)CC1` [Compound 2, [1-(3,4-dichlorobenzyl)piperidin-4-yl] [4-fluorophenyl] methanone] showed an inhibition at 40 µg/mL with P. falciparum Dd2 [2] of 82.7%. For the same molecule, the “Antiplasmodial activity class on 3D7” value in the data set with P. falciparum 3D7 (3D7 strain, class by IC50) is “active”. Also, the IC50 is 4.3 ± 3.75 µg/mL (≈ 11.7 µM) with P. falciparum 3D7 (setting [5]), 5.97 ± 0.02 µg/mL (≈ 16.3 µM) in the data set on P. falciparum Dd2 [1] (setting [6]) and 5 to 10 µg/mL (≈ 13.7 to 27.3 µM) in the data set with P. falciparum Dd2 [1] (setting [10]). Moreover, the values for the IC90 in the data set with P. falciparum 3D7 (setting [8]) and in the data set with P. falciparum Dd2 [1] (setting [7]) were 17.61 ± 0.06 µg/mL (≈ 48.1 µM) and 24.9 ± 4.14 µg/mL (≈ 67.9 µM), respectively. This molecule yielded a CC50 at 72 h in data set [3] of 188 µg/mL (≈ 512 µM). Moreover, in data set [4], the “SI on 3D7” value was determined as 43.51. Besides, in data set [4], the “SI on Dd2” value is listed as 31.37. For the same molecule, in data set [4], the “Mean SI” value is 37.44 ± 8.58.

In turn, `O=C(c1ccc(F)cc1)C1CCN(Cc2ccc(Cl)cc2)CC1` [Compound 3, [1-(4-chlorobenzyl)piperidin-4-yl] [4-fluorophenyl] methanone] came in with an inhibition at 40 µg/mL in the data set on P. falciparum Dd2 [2] of 56.6%. Besides, in the data set with P. falciparum 3D7 (3D7 strain, class by IC50), the “Antiplasmodial activity class on 3D7” value is on record as “active”. For the same molecule, the IC50 is 3.21 ± 0.21 µg/mL (≈ 9.67 µM) with P. falciparum 3D7 (setting [5]) and 4.12 ± 1.28 µg/mL (≈ 12.4 µM) in the data set with P. falciparum Dd2 [1] (setting [6]). Besides, the values for the IC90 with P. falciparum 3D7 (setting [8]) and in the data set on P. falciparum Dd2 [1] (setting [7]) were 17.9 ± 2.39 µg/mL (≈ 53.9 µM) and 32.4 ± 0.67 µg/mL (≈ 97.6 µM), respectively. Further, the “Antiplasmodial activity class on Dd2” value in the data set on P. falciparum Dd2 [1] (Dd2 strain, class by IC50) is “active”. In addition, in data set [3], the midpoint of cytotoxicity, the CC50 at 72 h, lay at 62.5 µg/mL (≈ 188 µM). Also, in data set [4], the “Mean SI” value is listed as 17.31 ± 3.0.

With `O=C(c1ccc(F)cc1)C1CCN(Cc2ccccc2[N+](=O)[O-])CC1` [Compound 4, [1-(2-nitrobenzyl)piperidin-4-yl] [4-fluorophenyl] methanone], in the data set with P. falciparum Dd2 [2], the “Inhibition (%) of P. falciparum Dd2 growth” value was “poor inhibition” and the inhibition at 40 µg/mL came to 27.7%.

As to `O=C(c1ccc(F)cc1)C1CCN(Cc2ccc(Br)cc2)CC1` [Compound 5, [1-(4-bromobenzyl)piperidin-4-yl] [4-fluorophenyl] methanone], the inhibition at 40 µg/mL in the data set with P. falciparum Dd2 [2] was 64.8%. Besides, the IC50 in the data set with P. falciparum 3D7 (setting [5]) was 10 ± 0.3 µg/mL (≈ 26.6 µM); with P. falciparum 3D7 (setting [9]), not below 10 µg/mL; in the data set with P. falciparum Dd2 [1] (setting [6]), 14.5 ± 1.34 µg/mL (≈ 38.6 µM); in the data set with P. falciparum Dd2 [1] (setting [10]), not below 10 µg/mL. In addition, the figures for the IC90 in the data set on P. falciparum 3D7 (setting [8]) and in the data set with P. falciparum Dd2 [1] (setting [7]) were 17.2 ± 0.97 µg/mL (≈ 45.8 µM) and 32.3 ± 4.17 µg/mL (≈ 85.9 µM), respectively.
